In paper PMC12735951, “A Bioorthogonal TCO–Tetrazine-Based Pretargeted PET/NIRF Platform Enabling High-Contrast Tumor Imaging” (Pharmaceuticals, 2025):

Legend:
[1] = system: subcutaneous tumors; assay: Pretargeted PET imaging with DZ-Lys-TCO and ^68Ga-DOTA-H-Tz at different intervals; assay type: in vivo, mice; conditions: DZ-Lys-TCO pre-injected
Experimental: To evaluate in vivo tumor targeting and bioorthogonal reaction kinetics, female BALB/c nude mice bearing subcutaneous tumors were intravenously injected with […] of each DZ-TCO precursor in phosphate-buffered saline (PBS). At predefined intervals (24, 48, or 72 h post-injection), […] of ^68Ga-labeled tetrazine probe (^68Ga-DOTA-Me-Tz or ^68Ga-DOTA-H-Tz; 3.7 MBq in PBS) was administered via the tail vein. PET imaging was performed using the IRIS system (Inviscan, Paris, France) at 30 min, 1 h, and 2 h post-injection under 2% isoflurane anesthesia. Image reconstruction and quantitative analysis were conducted using Inveon Research Workplace and OsiriX MD software version 10.0.4. Regions of interest (ROIs) were manually defined over tumors and major organs, and radiotracer uptake was expressed as the percentage of the injected dose per gram of tissue (%ID/g).

[2] = In vitro stability in 50% PBS; assay type: physicochemical; conditions: 37 °C
Experimental: (§1) ^68GaCl3 (5 mL, 20 mCi) and DOTA-Tz (50 μg) were mixed in a reaction vial. The pH was adjusted to 4.0–4.5 by adding 1 M sodium acetate, and the mixture was heated at 95 °C for 15 min without further purification. Radiochemical purity was confirmed by RP-HPLC. In vitro stability of ^68Ga-DOTA-Tz was assessed by incubating aliquots in 50% FBS or 50% PBS at 37 °C for 30 min, 1 h, 2 h, and 4 h. The partition coefficient (log p) was determined by mixing 1 mL of n-octanol with 1 mL of PBS containing the tracer, vortexing, and centrifuging at 3000 rpm for 5 min. Samples (0.1 mL) from both the organic and aqueous phases were withdrawn, and their radioactivity was measured using a γ-counter (PerkinElmer Wizard, Shelton, CT, USA).

[3] = Partition coefficient (log p), n-octanol/PBS; assay type: physicochemical
Experimental: as §1

[4] = system: HeLa tumors; assay: Pretargeting biodistribution (γ-counter) of DZ-Lys-TCO and ^68Ga-DOTA-H-Tz; assay type: in vivo, mice; conditions: DZ-Lys-TCO 48 h pretargeting interval
Experimental: To assess the in vivo biodistribution of the pretargeting system, female BALB/c nude mice bearing HeLa tumors (n = 3) were first injected intravenously with DZ-TCO. After 48 h, 0.74 MBq of ^68Ga-DOTA-H-Tz was administered via the tail vein. At 30, 60, and 120 min post-injection, mice were euthanized, and tissues including blood, tumor, liver, kidney, spleen, heart, lung, muscle, stomach, intestines, brain, and bone were excised, weighed, and counted using a γ-counter (Wizard2, PerkinElmer, Shelton, CT, USA). Radiotracer uptake was expressed as the percentage of injected dose per gram of tissue (%ID/g). Tumor-to-organ uptake ratios were calculated accordingly.

[5] = In vitro stability in 50% fetal bovine serum (FBS); assay type: in vitro ADME
Experimental: as §1

For `O=C([O-])CN1CCN(CC(=O)[O-])CCN(CC(=O)NCCCCNC(=O)Cc2ccc(-c3nncnn3)cc2)CCN(CC(=O)[O-])CC1.[68Ga+3]` [^68Ga-DOTA-H-Tz], the “maximum T/M ratio” value ([1]; 24 h interval) was 5.31 ± 0.48, the liver uptake ([1]; 24 h interval, 30 min p.i.) was 2.61 ± 0.53 %ID/g and the tumor uptake ([1]; 24 h interval, 30 min p.i.) was 2.64 ± 0.73 %ID/g. The T/L ratio ([1]; 24 h interval, 60 min p.i.) was 1.01 ± 0.08, the liver uptake ([1]; 24 h interval, 60 min p.i.) was 1.15 ± 0.16 %ID/g and the tumor uptake ([1]; 24 h interval, 60 min p.i.) was 1.18 ± 0.25 %ID/g. For the same compound, the liver uptake ([1]; 24 h interval, 120 min p.i.) was 0.91 ± 0.16 %ID/g, the tumor uptake ([1]; 24 h interval, 120 min p.i.) was 0.79 ± 0.14 %ID/g and the T/L ratio ([1]; 48 h interval) was 1.35 ± 0.26. The “T/M ratio (highest)” value ([1]; 48 h interval) was 8.30 ± 3.39, the tumor uptake ([1]; 48 h interval, 30 min p.i.) was 3.24 ± 0.95 %ID/g and the tumor uptake ([1]; 48 h interval, 120 min p.i.) was 0.96 ± 0.29 %ID/g. The “maximum T/M ratio” value ([1]; 72 h interval) was 5.84 ± 1.49, the liver uptake ([1]; 72 h interval, 30 min p.i.) was 2.32 ± 0.79 %ID/g and the tumor uptake ([1]; 72 h interval, 30 min p.i.) was 1.89 ± 0.57 %ID/g. The T/L ratio ([1]; 72 h interval, 60 min p.i.) was 0.98 ± 0.10, the liver uptake ([1]; 72 h interval, 60 min p.i.) was 1.40 ± 0.43 %ID/g and the tumor uptake ([1]; 72 h interval, 60 min p.i.) was 1.35 ± 0.31 %ID/g. The liver uptake ([1]; 72 h interval, 120 min p.i.) was 0.97 ± 0.05 %ID/g, the tumor uptake ([1]; 72 h interval, 120 min p.i.) was 0.91 ± 0.31 %ID/g and the “radiochemical purity in PBS after 4 h” value [2] was 98.76 ± 0.52%. It also gave a log p [3] of −3.57 ± 0.21, a Blood uptake ([4]; 30 min) of 2.96 ± 0.11 %ID/g and a Bone uptake ([4]; 30 min) of 0.64 ± 0.27 %ID/g. The Brain uptake ([4]; 30 min) was 0.37 ± 0.30 %ID/g, the Heart uptake ([4]; 30 min) was 1.34 ± 0.53 %ID/g and the Intestine uptake ([4]; 30 min) was 1.97 ± 0.38 %ID/g. It also gave a Kidney uptake ([4]; 30 min) of 10.71 ± 1.34 %ID/g, a Lung uptake ([4]; 30 min) of 2.38 ± 1.41 %ID/g and a Muscle uptake ([4]; 30 min) of 0.97 ± 0.21 %ID/g. For the same compound, the Spleen uptake ([4]; 30 min) was 1.03 ± 0.08 %ID/g, the Stomach uptake ([4]; 30 min) was 1.16 ± 0.13 %ID/g and the “T/B (tumor-to-blood ratio)” value ([4]; 30 min) was 1.18 ± 0.55. The “T/K (tumor-to-kidney ratio)” value ([4]; 30 min) was 0.32 ± 0.14, the “T/L (tumor-to-liver ratio)” value ([4]; 30 min) was 1.18 ± 0.28 and the liver uptake ([4]; 30 min) was 2.95 ± 1.04 %ID/g. It also gave a tumor uptake ([4]; 30 min) of 3.53 ± 1.76 %ID/g, a Blood uptake ([4]; 60 min) of 1.05 ± 0.29 %ID/g and a Bone uptake ([4]; 60 min) of 0.52 ± 0.20 %ID/g. For the same compound, the Brain uptake ([4]; 60 min) was 0.10 ± 0.03 %ID/g, the Heart uptake ([4]; 60 min) was 0.78 ± 0.58 %ID/g and the Intestine uptake ([4]; 60 min) was 0.59 ± 0.08 %ID/g. The Kidney uptake ([4]; 60 min) was 6.54 ± 1.95 %ID/g, the Lung uptake ([4]; 60 min) was 0.50 ± 0.18 %ID/g and the Muscle uptake ([4]; 60 min) was 0.38 ± 0.15 %ID/g. For the same compound, the Spleen uptake ([4]; 60 min) was 0.91 ± 0.70 %ID/g, the Stomach uptake ([4]; 60 min) was 0.83 ± 0.30 %ID/g and the “T/B (tumor-to-blood ratio)” value ([4]; 60 min) was 1.63 ± 0.53. For the same compound, the “T/K (tumor-to-kidney ratio)” value ([4]; 60 min) was 0.25 ± 0.05, the “T/L (tumor-to-liver ratio)” value ([4]; 60 min) was 1.08 ± 0.27 and the “T/M (tumor-to-muscle ratio)” value ([4]; 60 min) was 5.11 ± 3.51. It also gave a liver uptake ([4]; 60 min) of 1.56 ± 0.49 %ID/g, a tumor uptake ([4]; 60 min) of 1.72 ± 0.87 %ID/g and a Blood uptake ([4]; 120 min) of 0.64 ± 0.18 %ID/g. It also gave a Bone uptake ([4]; 120 min) of 0.08 ± 0.03 %ID/g, a Brain uptake ([4]; 120 min) of 0.03 ± 0.01 %ID/g and a Heart uptake ([4]; 120 min) of 0.17 ± 0.03 %ID/g. The Intestine uptake ([4]; 120 min) was 0.11 ± 0.08 %ID/g, the Kidney uptake ([4]; 120 min) was 3.28 ± 1.00 %ID/g and the Lung uptake ([4]; 120 min) was 0.14 ± 0.02 %ID/g. For the same compound, the Muscle uptake ([4]; 120 min) was 0.07 ± 0.02 %ID/g, the Spleen uptake ([4]; 120 min) was 0.24 ± 0.06 %ID/g and the Stomach uptake ([4]; 120 min) was 0.10 ± 0.05 %ID/g. For the same compound, the “T/B (tumor-to-blood ratio)” value ([4]; 120 min) was 1.39 ± 0.74, the “T/K (tumor-to-kidney ratio)” value ([4]; 120 min) was 0.26 ± 0.10 and the “T/L (tumor-to-liver ratio)” value ([4]; 120 min) was 1.07 ± 0.05. For the same compound, the “T/M (tumor-to-muscle ratio)” value ([4]; 120 min) was 10.92 ± 0.31, the liver uptake ([4]; 120 min) was 0.76 ± 0.23 %ID/g and the tumor uptake ([4]; 120 min) was 0.82 ± 0.28 %ID/g. For the same compound, the “Bone uptake, consistently” value ([4]; all time points) was less than 0.70 %ID/g, the “radiochemical purity in FBS at 4 h” value ([5]; 50% FBS, 37 °C) was 98.53 ± 0.58% and the “radiochemical stability after 4 h” value ([5]; PBS and serum) was greater than 85%.
